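In this assay, cells in 96-well plates receive the compound at five concentrations for 48 hours. Endpoints are linearly interpolated between the surrounding concentrations. TGI denotes the concentration required for complete inhibition of growth.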 *1 amine or outer side, *2 acyl side, *3 side chain or, on linkers, in order; H or OH if unused. Where a SMILES comes first, the peptide text is derived from it. Bridges are numbered along the chain shown (N, C = ends). [ ]: non-standard residue; d: D form. The star is where a group is joined. X38 = CC[C@H](C)[C@@H](N[*:1])[C@@H](O)CC(=O)[*:2]; NMeY = CN[C@@H](Cc1ccc(O)cc1)C(=O)O; dNMeL = CN[C@H](CC(C)C)C(=O)O; Hiv = CC(C)[C@H](O)C(=O)O; Pyruvoyl = CC(=O)C(=O)*; Cbz = O=C(OCc1ccccc1)*; OBn = c1ccc(CO*)cc1
Tests used:
Assay in all cases: NCI-60 cell line screen, 48 h
M14 melanoma = test system: M14 melanoma
SN12C renal = test system: SN12C renal
OVCAR-4 ovarian = test system: OVCAR-4 ovarian
K-562 leukemia = test system: K-562 leukemia
T-47D breast = test system: T-47D breast
SNB-75 CNS = test system: SNB-75 CNS
HT29 colon = test system: HT29 colon
SF-539 CNS = test system: SF-539 CNS
UACC-257 melanoma = test system: UACC-257 melanoma
UACC-62 melanoma = test system: UACC-62 melanoma
SR leukemia = test system: SR leukemia
IGROV1 ovarian = test system: IGROV1 ovarian
OVCAR-8 ovarian = test system: OVCAR-8 ovarian
SNB-19 CNS = test system: SNB-19 CNS
MDA-MB-435 = test system: MDA-MB-435
CAKI-1 renal = test system: CAKI-1 renal
MDA-MB-231 breast = test system: MDA-MB-231 breast
HCT-15 colon = test system: HCT-15 colon
OVCAR-3 ovarian = test system: OVCAR-3 ovarian

SMILES	TGI (M14 melanoma) [µM]	TGI (SN12C renal) [µM]	TGI (OVCAR-4 ovarian) [µM]	TGI (K-562 leukemia) [µM]	TGI (T-47D breast) [µM]	TGI (SNB-75 CNS) [µM]	TGI (HT29 colon) [µM]	TGI (SF-539 CNS) [µM]	TGI (UACC-257 melanoma) [µM]	TGI (UACC-62 melanoma) [µM]	TGI (SR leukemia) [µM]	TGI (IGROV1 ovarian) [µM]	TGI (OVCAR-8 ovarian) [µM]	TGI (SNB-19 CNS) [µM]	TGI (MDA-MB-435) [µM]	TGI (CAKI-1 renal) [µM]	TGI (MDA-MB-231 breast) [µM]	TGI (HCT-15 colon) [µM]	TGI (OVCAR-3 ovarian) [µM]
CC[C@H](C)[C@H]1NC(=O)[C@@H](NC(=O)[C@@H](CC(C)C)N(C)C(=O)[C@@H]2CCCN2C(=O)C(C)=O)[C@@H](C)OC(=O)[C@H](Cc2ccc(OC)cc2)N(C)C(=O)[C@@H]2CCCN2C(=O)[C@H](CC(C)C)NC(=O)[C@H](C(C)C)OC(=O)C[C@@H]1O (Pyruvoyl-P[dNMeL]T[X38][Hiv]LP[NMeY](Me); ester 3-C)	0.0261	0.0476	0.351	0.104	0.0113	0.0101	0.0795	0.0101	0.0655	0.0299	0.607	1.19	0.342	0.721	0.158	1.22	0.112	3.29	0.0532
O=c1[nH]c(=O)n(C2OC(CO)C(O)C(F)C2O)cc1F (stereo unspecified)	> 100	> 100	> 100	> 100	> 100	–	> 100	> 100	> 100	> 100	76.4	–	> 100	> 100	> 100	> 100	> 100	> 100	> 100
Cc1ccc(NCC2CC/C(=C\c3ccc(Cl)cc3)C2=O)cc1 (stereo unspecified)	28.9	33.3	> 80.7	> 19.8	46.5	> 100	49.1	> 60.7	39.2	58.6	> 24	38	36.1	> 55.7	35.9	21.7	28.4	9.41	29.1
C[C@H]1[C@H](C)N(Cc2ccccc2)P(=O)(C(O)/C=C/c2ccccc2)N1Cc1ccccc1 (stereo partly specified)	9.05	8.75	15	> 25	22.9	17.9	12.3	10.2	14.6	8.13	20.5	> 25	> 25	> 25	8.79	> 25	15.1	> 25	–
O=c1n(/N=C/c2ccccc2)c(=O)n2n1C1C=CC2CC1	> 100	> 100	–	> 100	> 100	> 100	> 100	> 100	> 100	> 100	> 100	> 100	> 100	> 100	> 100	> 100	> 100	> 100	> 100
c1csc(-c2cscc2-c2ccsc2)c1	> 100	> 100	> 100	> 100	> 100	> 100	> 100	> 93.5	> 100	> 100	> 95.9	> 100	> 100	> 100	> 68	> 100	> 100	> 100	56.1
Cc1nc2sc(CCl)nn2c(=O)c1Cl	26.9	26.6	29.7	28.1	28.3	24.7	26.2	31.3	29.7	36.2	26.2	34.8	31.4	32.3	18.3	24.8	36.4	23.8	29.5
O=C1CC(=O)NC(=NN2C(=O)CSC2c2ccc(Cl)c(Cl)c2)N1 (stereo unspecified)	> 100	> 100	> 100	> 100	> 100	> 100	> 100	> 100	> 100	> 100	> 100	> 100	> 100	–	> 100	> 100	> 100	> 100	> 100
COc1ccc(/C=C(\Cl)c2ccc(OC)c(OC)c2)cc1OC	> 100	> 100	> 100	> 100	> 100	> 100	> 100	> 100	> 100	> 100	> 100	> 100	> 100	> 100	> 100	> 100	> 100	> 100	> 100
Cc1nn2c(=O)c([N+](=O)[O-])c(/C=C/c3ccccc3)nc2s1	> 53.9	> 100	> 100	> 26.7	> 100	20.3	7.83	5.89	> 100	26.9	6.52	> 67.8	5.26	> 90.8	5.06	> 100	> 100	12.3	26.5
COC(=O)N1C[C@@]2(C=CC3(CC2)OCCO3)c2ccccc21	> 100	> 100	> 100	> 100	> 100	> 100	> 100	–	> 100	> 100	> 100	> 100	> 100	> 100	74.5	> 100	> 100	> 100	> 100
CC1=C(C(=O)Nc2cccc3c2C(=O)NC3=O)CC(C(=O)Nc2cccc3c2C(=O)NC3=O)=C(C)N1	> 100	> 100	> 100	> 100	> 100	> 100	–	> 100	> 100	> 100	> 100	> 100	–	> 100	> 100	> 100	> 100	> 100	> 100
Clc1cccc(Cl)c1C=NC12CC3CC(CC(C3)C1)C2	> 10	> 10	> 10	> 10	> 10	> 10	> 10	> 10	> 10	> 10	> 10	> 10	> 10	> 10	> 10	> 10	> 10	> 10	> 10
CCOC(=O)/C(N=Nc1ccc(-n2c(C)nc3ccccc3c2=O)cc1)=C(/C)O	> 100	> 100	–	> 100	92.3	78.4	> 100	> 100	> 100	> 100	> 100	> 100	50.5	> 100	59.8	> 100	> 100	> 100	53.1
CCOC(=O)/C(C)=C\[C@@]1(C)O[C@@H](C)[C@@](C)(OC(C)=O)[C@@H]1OC(C)=O	> 100	> 100	> 100	> 100	59.8	–	> 100	> 100	> 100	> 100	> 100	> 100	> 100	> 100	> 100	> 100	> 100	60.2	> 100
C=C(c1ccccc1)C1ON(C)CCc2cc(OC)c(OC)cc21 (stereo unspecified)	> 100	> 100	–	> 100	> 100	> 100	> 100	> 100	> 100	> 100	> 100	> 100	> 100	> 100	> 100	> 100	> 100	> 100	> 100
NCCCNCCCNCCCN	> 100	> 100	> 100	72.9	> 100	–	> 100	–	> 100	> 100	44.7	> 100	> 100	> 100	> 100	> 100	> 100	> 100	> 100
CCOC(=O)c1nc2ccc(C(F)(F)F)cc2nc1NCc1ccc(Cl)c(Cl)c1	> 100	–	48.6	> 100	> 100	51.3	90.9	> 100	> 100	> 100	> 100	55.4	> 100	83.2	56.7	57.5	> 100	> 100	66.2
O=C1NC(N2CCOCC2)=N/C1=C\c1cccs1	> 100	> 100	> 100	–	> 100	> 100	> 100	> 100	> 100	> 100	> 100	> 100	> 100	> 100	> 100	> 100	> 100	> 100	> 100
COC(=O)CNC(=O)C(C)NC(=O)C(CC(=O)OCc1ccccc1)NC(=O)OCc1ccccc1 (stereo not drawn) (Cbz-Asp(OBn)-Ala-Gly-OMe; configuration not given here)	> 100	> 100	–	> 100	70.3	> 100	> 100	> 100	> 100	> 100	> 100	> 100	> 100	> 100	> 100	> 100	46.9	> 100	> 100
COc1ccc(/C=C2/C(C)=NN(c3cccc(Cl)c3)/C2=N/c2nc3ccccc3s2)cc1	60.8	–	> 100	> 100	> 100	86.6	37.8	60.7	55.7	–	62.6	46.7	49.3	–	> 100	86.6	67.5	36.1	48.8
O=C1CSC2(CC(/C=C/c3ccccc3O)=NN2c2cccc(S(=O)(=O)O)c2)N1c1nc2ccccc2s1 (stereo unspecified)	> 100	78.7	88.5	> 100	65.4	> 100	> 100	48.8	> 100	> 100	49.5	> 100	54.1	> 100	55.7	> 100	> 100	> 100	–
CC(C)=CCOc1cc(NC(=S)c2ccoc2C)ccc1Cl	–	> 100	> 100	–	> 100	63.9	> 100	> 100	> 100	> 100	> 100	> 100	> 100	> 100	> 100	> 100	> 100	> 100	> 100
CCOC(=O)C(c1c[nH]c2ccccc12)(c1c[nH]c2ccccc12)c1c[nH]c2ccccc12	> 100	> 100	–	46.8	54.2	88.5	> 100	> 100	> 100	> 100	80	> 100	> 100	> 100	76.7	> 100	> 100	> 100	> 100
Nc1ccn(C2CC(O)C(COP(O)(=S)OC3CC(n4ccc(N)nc4=O)OC3CO)O2)c(=O)n1 (stereo unspecified)	> 100	> 100	> 100	–	> 100	> 100	> 100	> 100	> 100	> 100	> 100	> 100	> 100	> 100	> 100	> 100	> 100	> 100	> 100

— PubChem BioAssay (NCI)
